Laboratory results published in patent US20250009819A1, “NOVEL PROBIOTICS AND USE THEREOF” (PBLBIOLAB CO., LTD., priority 2021, published 2025).

Assays:
[1] = Antioxidant activity (DPPH, in vitro); type: biochemical; details: DPPH 0.2 mM; lactic acid bacteria suspension 1×10^8 CFU/ml; 37° C. 20 min
Summary of the method: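 Lactic acid bacteria suspension (1×10^8 CFU/ml) or vitamin C (1 g/ml) was mixed with 0.2 mM ethanolic DPPH and incubated 20 min at 37° C. After centrifugation, supernatant absorbance at 517 nm gave the antioxidant activity.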

TNF-α = TNF-α expression in LPS-treated macrophages (ELISA); type: cell-based, C57BL/6 mice; details: macrophages treated with lactic acid bacteria and LPS for 24 hours
Summary of the method: (§1)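 Peritoneal macrophages were elicited in male C57BL/6 mice (6 weeks) by i.p. 4% thioglycolate and harvested 96 h later. Cells at 0.5×10^6/well were treated with lactic acid bacteria plus LPS for 24 h. Cytokines in the supernatant were quantified by ELISA.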

IL-10 = IL-10 expression in LPS-treated macrophages (ELISA); type: cell-based, C57BL/6 mice; details: macrophages treated with lactic acid bacteria and LPS for 24 hours
Summary of the method: as §1

BDNF = BDNF expression in SH-SY5Y cells; type: cell-based; details: LPS 200 ng/ml; lactic acid bacteria 1×10^4 CFU/ml; 24 h
Method: (§2) SH-SY5Y cells obtained from the Korean Cell Line Bank were cultured in DMEM medium supplemented with 10% FBS and 1% antibiotics, and dispensed at 2×10^6 cells per well in a 12-well plate. Then, LPS (200 ng/ml) was added to each well along with lactic acid bacteria (1×10^4 CFU/ml) and incubated for 24 h. The cells and supernatants were collected, sonicated and centrifuged, and the amount of BDNF in the supernatant was measured by ELISA kit.

Neuropeptide Y (NPY) = Neuropeptide Y (NPY) expression in PC12 phaeochromocytoma cells; type: cell-based; details: LPS 200 ng/ml; lactic acid bacteria 1×10^4 CFU/ml; 24 hr
Method: as §2, with “PC12” for “SH-SY5Y”, “1×10^6” for “2×10^6”, “hr.” for “h.”, “NPY” for “BDNF”

Clostridium difficile = Clostridium difficile proliferation in gut microbiota (PCR); type: cell-based; details: human feces culture; lactic acid bacteria 1×10^6 CFU/mL; anaerobic 24 hr
Summary of the method: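 Human fecal supernatant, diluted 10,000-fold in GAM, co-cultured anaerobically 24 h with lactic acid bacteria (1×10^6 CFU/mL). C. difficile quantified by PCR on pellet DNA (95 °C 30 s; 42 cycles 95 °C 5 s/72 °C 30 s); supernatant LPS measured by ELISA.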

gut microbiota = test: LPS production in gut microbiota (ELISA); type: cell-based; details: human feces culture; lactic acid bacteria 1×10^6 CFU/mL; anaerobic 24 hr
Method: Fresh human feces were suspended in anaerobic medium (GAM, Nissui Pharmaceutical Co., Ltd., Japan) and allowed to stand for 10 min. The supernatant was diluted with 10,000-fold anaerobic medium, 0.05 mL of the dilution was transplanted into 5 mL of freshly made anaerobic medium, and lactic acid bacteria (1×10^6 CFU/mL) were implanted and incubated anaerobically for 24 hr.

Substance | Antioxidant activity [1] | Macrophage Inhibition of TNF-α expression (TNF-α) | Macrophage Induction of IL-10 expression (IL-10) | SHSY5Y cell Induction of BDNF expression (BDNF) | PC12 cell Induction of NPY expression (Neuropeptide Y (NPY)) | Gut microbiota Inhibition of difficile bacteria proliferation (Clostridium difficile) | Gut microbiota Inhibition of LPS production (gut microbiota)
Lactobacillus sakei NK198 | ++ (strongly (++; >60-90%)) | − (not or less than 20% (−; <20%)) | − (not or less than 20% (−; <20%)) | − (not or less than 20% (−; <20%)) | + (weakly (+; >20-60%)) | − (not or less than 20% (−; <20%)) | ++ (strongly (++; >60-90%))
Bifidobacterium longum NK218 | + (weakly (+; >20-60%)) | − (not or less than 20% (−; <20%)) | − (not or less than 20% (−; <20%)) | + (weakly (+; >20-60%)) | + (weakly (+; >20-60%)) | + (weakly (+; >20-60%)) | + (weakly (+; >20-60%))
Lactobacillus casei NK194 | ++ (strongly (++; >60-90%)) | − (not or less than 20% (−; <20%)) | + (weakly (+; >20-60%)) | + (weakly (+; >20-60%)) | + (weakly (+; >20-60%)) | + (weakly (+; >20-60%)) | + (weakly (+; >20-60%))
Bifidobacterium bifidum NK223 | + (weakly (+; >20-60%)) | + (weakly (+; >20-60%)) | + (weakly (+; >20-60%)) | + (weakly (+; >20-60%)) | − (not or less than 20% (−; <20%)) | − (not or less than 20% (−; <20%)) | − (not or less than 20% (−; <20%))
Lactobacillus mucosae NK205 | + (weakly (+; >20-60%)) | − (not or less than 20% (−; <20%)) | − (not or less than 20% (−; <20%)) | − (not or less than 20% (−; <20%)) | + (weakly (+; >20-60%)) | − (not or less than 20% (−; <20%)) | − (not or less than 20% (−; <20%))
Lactobacillus gasseri NK187 | + (weakly (+; >20-60%)) | + (weakly (+; >20-60%)) | − (not or less than 20% (−; <20%)) | + (weakly (+; >20-60%)) | − (not or less than 20% (−; <20%)) | + (weakly (+; >20-60%)) | + (weakly (+; >20-60%))
Bifidobacterium infantis NK213 | + (weakly (+; >20-60%)) | + (weakly (+; >20-60%)) | + (weakly (+; >20-60%)) | − (not or less than 20% (−; <20%)) | − (not or less than 20% (−; <20%)) | + (weakly (+; >20-60%)) | − (not or less than 20% (−; <20%))
